PubChem BioAssay (NCI)
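Growth conditions: 96-well plates. Treatment: test compound, 48 hours, 5 concentrations. Analysis: linear interpolation between bracketing concentrations; unreached endpoints set to highest concentration. GI50 = concentration required for 50% inhibition of growth. TGI is the concentration that stops growth completely.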

What was measured:
Assay in all cases: NCI tumour cell line growth inhibition, 48 h
HCT-15 colon = system: HCT-15 colon
NCI-H522 lung = system: NCI-H522 lung
HL-60(TB) leukemia = system: HL-60(TB) leukemia
RPMI-8226 leukemia = system: RPMI-8226 leukemia
SK-MEL-28 melanoma = system: SK-MEL-28 melanoma
A498 renal = system: A498 renal
ACHN renal = system: ACHN renal
SF-268 CNS = system: SF-268 CNS
SF-539 CNS = system: SF-539 CNS
MOLT-4 leukemia = system: MOLT-4 leukemia

Structure (SMILES) | GI50 (HCT-15 colon) [µM] | TGI (HCT-15 colon) [µM] | GI50 (NCI-H522 lung) [µM] | TGI (NCI-H522 lung) [µM] | GI50 (HL-60(TB) leukemia) [µM] | TGI (HL-60(TB) leukemia) [µM] | GI50 (RPMI-8226 leukemia) [µM] | TGI (RPMI-8226 leukemia) [µM] | GI50 (SK-MEL-28 melanoma) [µM] | TGI (SK-MEL-28 melanoma) [µM] | GI50 (A498 renal) [µM] | TGI (A498 renal) [µM] | GI50 (ACHN renal) [µM] | TGI (ACHN renal) [µM] | GI50 (SF-268 CNS) [µM] | TGI (SF-268 CNS) [µM] | GI50 (SF-539 CNS) [µM] | TGI (SF-539 CNS) [µM] | TGI (MOLT-4 leukemia) [µM] | GI50 (MOLT-4 leukemia) [µM]
C=CCC(N[C@@H](CO)c1ccccc1)c1cn(Cc2ccccc2Cl)c(=O)n(Cc2ccccc2Cl)c1=O (stereo partly drawn) | > 100 | > 100 | > 100 | > 100 | 93.2 | > 100 | 55.8 | > 100 | > 100 | > 100 | 13.5 | > 100 | > 100 | > 100 | > 100 | > 100 | > 100 | > 100 |  | 
O=C1c2[nH]cc(CNC3CN4CCC3CC4)c2C(=O)c2c1c(O)c1ccccc1c2O (stereo not drawn) | 3.62 | 8.55 |  |  |  |  | 1.46 | 4.15 | 13 | 34.2 |  | 1.72 | 2.6 | 8.04 | 12.6 | 68.4 | 1.94 | 3.61 | 1.72 | 
C=C=C(C(=O)OC)S(=O)c1ccccc1[N+](=O)[O-] (stereo not drawn) |  | > 100 |  | 75.9 |  | > 100 |  | > 100 |  |  |  | > 100 |  | > 100 |  | > 100 |  | > 100 | > 100 | 
CCN(CC)CC(C)(C)C(=O)/C=C/c1cccc(/C=C/C(=O)C(C)(C)CN(CC)CC)c1 |  | 2.37 |  |  |  |  |  | > 100 |  | 2.75 |  | 2.71 |  | 2.38 |  | 1.68 |  | 2.27 | 0.901 | 
CC[C@H](NC(=O)[C@H]1CCCCN1C)C(=O)N(C)[C@H](C[C@@H](OC(C)=O)c1nc(C(=O)N[C@@H](Cc2ccccc2)C[C@H](C)C(=O)O)cs1)C(C)C | 0.00933 | > 14.3 | 0.00284 | 0.337 | 0.00433 | 0.019 | 0.00531 | > 14.3 |  |  |  |  | 0.0142 | > 14.3 | < 0.03 | > 14.3 | 0.0035 | 0.0265 | > 14.3 | 0.0106
C#CCNC(=O)N(CC#C)N=O |  | > 100 |  | 41.6 |  | 63.4 |  |  |  | > 100 |  | > 100 |  | > 100 |  | > 100 |  | > 100 | > 100 | 
Nc1c(-c2cn(Cc3ccccc3)c3ccccc23)[n+]([O-])c2ccccc2[n+]1[O-] |  | > 100 |  | 48.6 |  | 42.6 |  | > 100 |  | 91.8 |  | 41.9 |  | > 100 |  | > 100 |  |  | 92.3 | 
Nc1ccccc1NC(=O)c1ccc(CNc2nccc(-c3cccnc3)n2)cc1 | 2.06 | > 44.1 | 0.337 | 1.76 | 0.424 | 2.43 | 0.5 | 14.6 | 0.691 | 3.15 |  |  | 1.14 | > 27.8 | 0.995 | > 21.4 | 0.805 | 13.1 | > 23.2 | 0.643
O=C(/C=C/c1ccco1)c1cc(F)c(Cl)cc1Cl | 21.5 | 55.8 | 18.4 | 39.5 | 30.8 | > 100 | 13.8 | 39.9 | 22.7 | 50.2 | 18.7 | 39.2 | 20.1 | 45.1 | 20 | 45.5 | 20 | 38.1 |  | 
CCOC(=O)C1=C(C)N=c2s/c(=C\c3ccccc3O)c(=O)n2C1c1ccc(OC)c2ccccc12 (stereo not drawn) | 8.69 | > 100 | 13.4 | 44.3 | 38.6 | > 100 | 5.39 | 31.2 | 15.5 | 76.4 |  |  | 3.03 | 8.87 | 6.23 | 25.5 | 1.76 | 3.67 | > 100 | 15.5
O=C1/C(=N\O)c2ccccc2S1(=O)=O |  | > 100 |  | > 100 |  | > 100 |  | > 100 |  |  |  | > 100 |  | > 100 |  | > 100 |  | > 100 | > 100 | 
CC1=C(O)c2cn(C)cc2C(=O)C1=O |  | > 100 |  |  |  | > 100 |  | > 100 |  | > 100 |  | > 100 |  | > 100 |  | > 100 |  | > 100 | > 100 | 
COc1ccccc1NC(=O)C1=C(C)NC(C)=C(C(=O)Nc2ccccc2OC)C1C1=CC=COC1 |  | 15 |  |  |  | 10.7 |  | 50.1 |  | 74 |  | 45.4 |  | > 100 |  | 62.4 |  | 30.7 | > 100 | 
Cc1cc([N+](=O)[O-])ccc1NC(=O)C(=O)C(C(=O)c1ccccc1-c1ccccc1)C1OC(=O)c2ccccc21 (stereo not drawn) |  | 36.8 |  | 26.2 |  |  |  | 98 |  | > 100 |  |  |  | > 100 |  | 58.1 |  | 21.7 | 72.2 | 
O=C(O)/C=C/C(=O)N1Cc2cc3ccccc3nc2C1 |  | > 100 |  | > 100 |  | > 100 |  | > 100 |  | > 100 |  |  |  | > 100 |  | > 100 |  | > 100 | > 100 | 
OC(c1cc(-c2cccc(Cl)c2)nc2ccccc12)C1CCCCN1 (stereo not drawn) | 1.91 | 3.91 | 1.97 | 3.66 | 1.72 | 4.22 | 2.68 | 6.45 | 1.81 | 3.42 |  |  | 1.64 | 3.13 | 1.57 | 2.97 | 1.93 | 3.61 | 4.14 | 1.6
C=C1CC2CCCC12C=O (stereo not drawn) |  | > 10 |  | > 10 |  | > 10 |  | > 10 |  | > 10 |  |  |  | > 10 |  | > 10 |  | > 10 | > 10 | 
